The record followed here is PubChem BioAssay AID732 (Emory University Molecular Libraries Screening Center, 2007).

This assay concerns in vivo angiogenesis, blood vessel count. Kind of assay: angiogenesis inhibition in living animals, in vivo study, HTS (AID 732).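 Further: zebrafish embryos dosed at one day post fertilization; 0% = reference inhibitor and 100% = plate mean.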 To be noted: active compounds read low;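 tested at 30 µM in the well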.

The source made the active and inactive calls. How the calls were made is not given here.

Turning to `CCC1(O)CC2CN(CCc3c([nH]c4ccccc34)[C@@](C(=O)OC)(c3cc4c(cc3OC)N(C=O)C3[C@]45CCN4CC=C[C@@](CC)([C@@H](OC(C)=O)[C@]3(O)C(=O)OC)[C@H]45)C2)C1` (stereo not given in full), the vessel count % control was 109% (inactive).

With `CC(N)(C(=O)O)c1ccc(C(=O)O)cc1` (stereo not given), the vessel count % control was 93.5% (inactive).

For the molecule `CC1(C)CCC2=C(O1)c1ccccc1C(=O)C2=O`, the vessel count % control was 65.8% (inactive).

Consider `N[C@H](CCC(=O)NCS(=O)(=O)O)C(=O)O`, for which the vessel count % control is 102% (inactive).

For the molecule `NC(=NCc1ccccc1)NC(=O)c1nc(Cl)c(N)nc1N`, the vessel count % control is 107% (inactive).

Consider `CCCCC/C=C\CC(O)/C=C/c1cccc(CC(O)CCCCO)n1` (stereo not given), for which the vessel count % control is 100% (inactive).

Regarding `CNc1ccc2oc(C[C@H]3O[C@@]4(CC[C@H]3C)O[C@H]([C@H](C)C(=O)c3ccc[nH]3)[C@H](C)C[C@H]4C)nc2c1C(=O)O`, the vessel count % control is 0% (inactive).

Take `COc1ccc(/C=C/C(=O)Nc2ccccc2C(=O)O)cc1OC`: the vessel count % control was 100% (inactive).

On to `Cc1c(OCC(F)(F)F)ccnc1CS(=O)c1nc2ccccc2[nH]1` (stereo not given), for which the vessel count % control is 76.7% (inactive).

In the case of `C[C@]12Cc3cn4c(nc3C=C1CCC1C2CC[C@@]2(C)[C@H]1CC[C@@]2(O)C#N)nc1ccccc14` (stereo not given in full), the vessel count % control is 97% (inactive).

`COc1ccc2[nH]c(I)c(CCNC(C)=O)c2c1`: the vessel count % control is 107% (inactive).

For `CC(C)Cc1ccc([C@H](C)C(=O)O)cc1`, the vessel count % control was 66.8% (inactive).

For the molecule `CC(C)[C@@H]1NC(=O)[C@H](CCCCN)NC(=O)[C@@H](Cc2c[nH]c3ccccc23)NC(=O)[C@H](Cc2ccc(O)cc2)NC(=O)[C@H](C)N(C)C(=O)[C@H](Cc2ccccc2)NC1=O`, the vessel count % control was 101% (inactive).

On to `O=C(O)c1cc([N+](=O)[O-])ccc1NCCCc1ccccc1`, for which the vessel count % control was 92.5% (inactive).

As for `O=C(O)c1cc2cc(Cc3cccnc3)ccc2o1`, the vessel count % control was 100% (inactive).

On to `CNC1(C)C2CCC(C2)C1(C)C` (stereo not given), for which the vessel count % control is 107% (inactive).

With `CCCN(CCC)[C@@H]1CCc2c(F)ccc(O)c2C1`, the vessel count % control is 78.7% (inactive).

For the molecule `N#CC(C#N)=Cc1ccc(O)c(O)c1`, the vessel count % control is 119% (inactive).

In the case of `CN1C2CCC1CC(NC(=O)c1nn(C)c3ccccc13)C2` (stereo not given), the vessel count % control was 104% (inactive).

For `N=C(N)SCCN`, the vessel count % control is 110% (inactive).

Consider `Cc1scc2c1N(C(=O)CN1CCN(C)CC1)c1ccccc1NC2=O`, for which the vessel count % control is 93.3% (inactive).

Take `CN1CCN(CC(=O)N2c3ccccc3C(=O)Nc3cccnc32)CC1`: the vessel count % control is 95.1% (inactive).

As to `Clc1cc(I)cc(Cl)c1NC1=NCCN1`, the vessel count % control was 80.6% (inactive).

Regarding `CN(C)S(=O)(=O)c1ccc2c(c1)/C(=C/c1cc3c([nH]1)CCCC3)C(=O)N2`, the vessel count % control was 120% (inactive).

Regarding `Cc1ccc(S(=O)(=O)N[C@@H](Cc2ccccc2)C(=O)CCl)cc1`, the vessel count % control was 97.1% (inactive).

For `CCCCNC(=O)NS(=O)(=O)c1ccc(C)cc1`, the vessel count % control was 87.6% (inactive).

As to `c1ccc2nc(C3=NCCN3)ccc2c1`, the vessel count % control was 97.4% (inactive).

With `NCCC1CCCC(CCN)N1` (stereo not given), the vessel count % control was 115% (inactive).

For `C[C@](N)(Cc1ccc(O)cc1)C(=O)O`, the vessel count % control was 116% (inactive).

For `NNC(N)=O`, the vessel count % control was 126% (inactive).

As to `CC12NC(Cc3ccccc31)c1ccccc12` (stereo not given), the vessel count % control is 76.2% (inactive).

In the case of `Cc1ccccc1N1CCN(S(=O)(=O)C[C@]23CCC(CC2NC(=O)[C@@H](N)CCS(C)(=O)=O)C3(C)C)CC1` (stereo not given in full), the vessel count % control is 107% (inactive).

As to `NCCNS(=O)(=O)c1cccc2cnccc12`, the vessel count % control is 98.2% (inactive).

With `CC(=O)Nc1nnc(S(N)(=O)=O)s1`, the vessel count % control was 78.2% (inactive).

For `Nn1nnc2ccccc21`, the vessel count % control was 109% (inactive).

Regarding `CC(=O)NCCc1c[nH]c2ccccc12`, the vessel count % control is 103% (inactive).

For `O=C1CC[C@@]2(O)C3Cc4ccc(O)c5c4C2(CCN3CC2CC2)[C@H]1O5` (stereo not given in full), the vessel count % control was 73.7% (inactive).

Turning to `O=C(O)C1=CCCN(CCON=C(c2ccccc2)c2ccccc2)C1`, the vessel count % control is 104% (inactive).

In the case of `Nc1c(S(=O)(=O)O)cc(Nc2ccc(Nc3nc(Cl)nc(Nc4ccc(S(=O)(=O)O)cc4)n3)c(S(=O)(=O)O)c2)c2c1C(=O)c1ccccc1C2=O`, the vessel count % control was 106% (inactive).

Consider `CCN1/C(=C/C(C)=O)Sc2ccc(OC)cc21`, for which the vessel count % control was 98% (inactive).

In the case of `CCSC(N)=Nc1ccc(C(F)(F)F)cc1`, the vessel count % control was 87.5% (inactive).

For the molecule `CN1CCN(CCCN2c3ccccc3Sc3ccc(Cl)cc32)CC1`, the vessel count % control is 68.9% (inactive).

Take `CCN(CC)CCOCCOC(=O)C1(c2ccccc2)CCCC1`: the vessel count % control is 108% (inactive).

`CC(Cc1ccc(O)cc1)NCC(O)c1cc(O)cc(O)c1` (stereo not given): the vessel count % control was 114% (inactive).

In the case of `O=C1NC(=O)C(c2ccccc2)(c2ccccc2)N1`, the vessel count % control is 92.7% (inactive).

Turning to `COc1ccc2c(c1)CCC1C2CC[C@@]2(C)C1CC[C@@H]2NCCCCCCN1C(=O)C=CC1=O` (stereo not given in full), the vessel count % control is 0% (inactive).

Take `O=C(O)CP(=O)(O)O`: the vessel count % control is 79.8% (inactive).

As for `O=c1cc(-c2ccc(O)cc2)oc2cc(O)cc(O)c12`, the vessel count % control was 87.4% (inactive).

As for `CCCCCCCCC(=O)NCc1ccc(O)c(OC)c1`, the vessel count % control is 98.1% (inactive).

As to `C[C@]12CC[C@H](O)CC1=CC[C@@H]1[C@@H]2CC[C@]2(C)C(=O)CC[C@@H]12`, the vessel count % control is 106% (inactive).

On to `C=C/C(C)=C/[C@@]1(C)SC(=O)C(C)=C1O`, for which the vessel count % control is 97.7% (inactive).

As for `O=C(O)C1CCCN(CCC=C(c2ccccc2)c2ccccc2)C1` (stereo not given), the vessel count % control was 88.5% (inactive).

`CCC(=O)c1ccc2c(c1)N(CCCN(C)C)c1ccccc1S2`: the vessel count % control was 112% (inactive).

On to `COc1cc(-c2ccc(=O)[nH]n2)ccc1OC(F)F`, for which the vessel count % control is 75.5% (inactive).

With `O=C1C(c2c(O)[nH]c3ccccc23)=Nc2ccc(Br)cc21`, the vessel count % control was 108% (inactive).

Consider `CC(=O)/C(C)=N/O`, for which the vessel count % control is 104% (inactive).

As for `O=C(O)CCCC[C@@H]1CCSS1`, the vessel count % control was 100% (inactive).

As to `CCN1CCCC1CNC(=O)c1cc(S(N)(=O)=O)ccc1OC` (stereo not given), the vessel count % control was 112% (inactive).

In the case of `CC(C)(C)NCC(O)c1ccccc1Cl` (stereo not given), the vessel count % control was 130% (inactive).

On to `CNCCNS(=O)(=O)c1cccc2cnccc12`, for which the vessel count % control was 140% (inactive).

With `C#C[C@]1(O)CC[C@H]2[C@@H]3CCC4=Cc5oncc5CC4(C)[C@H]3CCC21C` (stereo not given in full), the vessel count % control is 118% (inactive).

Turning to `NC(=O)C1=CN(C2OC(COP(=O)(O)OP(=O)(O)OC[C@H]3O[C@@H](n4cnc5c(N)ncnc54)C(OP(=O)(O)O)[C@H]3O)C(O)C2O)C=CC1` (stereo not given in full), the vessel count % control is 101% (inactive).

With `C[C@H]1OC[C@@H](C[N+](C)(C)C)O1`, the vessel count % control is 115% (inactive).

Take `O=C(O)CN(CCOCCOCCN(CC(=O)O)CC(=O)O)CC(=O)O`: the vessel count % control was 103% (inactive).

In the case of `C[C@@](Cc1ccc(O)c(O)c1)(NN)C(=O)O`, the vessel count % control was 94.6% (inactive).

For `CCCCCN(CCCCC)C(=O)C(CCC(=O)O)NC(=O)c1ccc(Cl)c(Cl)c1` (stereo not given), the vessel count % control was 81.3% (inactive).

For `NNC(=O)c1ccc(O)cc1`, the vessel count % control is 97.5% (inactive).

Take `O=C(CCCN1CCC(O)(c2cccc(C(F)(F)F)c2)CC1)c1ccc(F)cc1`: the vessel count % control is 60.2% (inactive).

Consider `OC(CN1CCC(Cc2ccc(F)cc2)CC1)c1ccc(Cl)cc1` (stereo not given), for which the vessel count % control is 61.6% (inactive).

In the case of `CCCCN1CCC(n2c(=O)[nH]c3ccccc32)CC1`, the vessel count % control was 67.2% (inactive).

As to `O=C(CCCN1CCC(O)(c2ccc(Cl)cc2)CC1)c1ccc(F)cc1`, the vessel count % control was 77.9% (inactive).

On to `NC1CCN(c2cccc(Cl)n2)CC1`, for which the vessel count % control was 91.5% (inactive).

For `O=C(O)Cc1cnc[nH]1`, the vessel count % control is 110% (inactive).

For `COC(=O)[C@@H](N)CCCN=C(N)N[N+](=O)[O-]`, the vessel count % control is 95% (inactive).

Regarding `Nc1ncnc2c1ncn2[C@@H]1O[C@H](COP(=O)(O)OP(=O)(O)OP(=O)(O)OP(=O)(O)OC[C@@H]2O[C@H](n3cnc4c(N)ncnc43)C(O)[C@@H]2O)[C@H](O)C1O` (stereo not given in full), the vessel count % control was 89.7% (inactive).

`NCCS(=O)(=O)O`: the vessel count % control was 96.7% (inactive).

As for `CCN(CC)C(=O)N[C@@H]1C=C2c3cccc4[nH]cc(c34)C[C@H]2N(C)C1`, the vessel count % control was 75.3% (inactive).

As to `CC(C)CC(NP(=O)(O)O[C@@H]1O[C@@H](C)[C@H](O)[C@@H](O)[C@H]1O)C(=O)NC(Cc1c[nH]c2ccccc12)C(=O)O` (stereo not given in full), the vessel count % control is 118% (inactive).

As for `C[C@@H](N)Cc1cnc[nH]1`, the vessel count % control is 97.8% (inactive).

Regarding `O=C(Cc1ccc(Cl)c(Cl)c1)N1CCCCC1CN1CCCC1` (stereo not given), the vessel count % control was 114% (inactive).

Take `O=c1c(O)c(-c2ccc(O)cc2O)oc2cc(O)cc(O)c12`: the vessel count % control is 108% (inactive).

Regarding `Cc1nc(-c2ccc(-c3ccc(C(=O)N4CCc5cc6c(cc54)C4(CCN(C)CC4)CO6)cc3)c(C)c2)no1`, the vessel count % control is 108% (inactive).

Regarding `Cc1nc(N=Nc2ccc(C(=O)O)cc2)c(COP(=O)(O)O)c(C=O)c1O`, the vessel count % control is 93.9% (inactive).

Take `CC(=O)Oc1cc(C(C)C)c(OCCN(C)C)cc1C`: the vessel count % control is 109% (inactive).

As to `Oc1ccccc1O`, the vessel count % control was 96.4% (inactive).
